Measurements published in the supplement of paper PMC10307832.

What was measured:
Test in all cases: relative viability (nuclei count vs DMSO), 5 days (fraction); higher = more cells survive
Apatinib = compound: N#CC1(c2ccc(NC(=O)c3cccnc3NCc3ccncc3)cc2)CCCC1 [Apatinib]
Summary of the method: (§1)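 Cells of lung cancer lines were placed in 1536-well plates and kept overnight at 37 °C. Pinning then delivered five library-drug doses (not always all listed), spaced by √10, onto plates anchored with vehicle, and the cells were left 5 days without changing medium. One step fixed, permeabilised and stained them with Hoechst, and MetaXpress counted nuclei in 4× images. Viability, as a median over plates, is treated-well nuclei divided by vehicle-well nuclei, with acceptance only at control CV below 25% and at least one doubling.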

Metformin = compound: CN(C)C(=N)NC(=N)N [Metformin]
Summary of the method: as §1

Metformin + Navitoclax = compound: CN(C)C(=N)NC(=N)N [Metformin] + CC1(C)CCC(c2ccc(Cl)cc2)=C(CN2CCN(c3ccc(C(=O)NS(=O)(=O)c4ccc(N[C@H](CCN5CCOCC5)CSc5ccccc5)c(S(=O)(=O)C(F)(F)F)c4)cc3)CC2)C1 [Navitoclax] (partner 0.5 µM)
Summary of the method: (§2)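 Dosing by pin tool came one day after lung cancer cell lines were seeded in 1536-well plates, using either one drug or a fixed anchor-drug dose plus five library-drug doses (not always all listed) in √10 steps. After 5 days, nuclei were counted on 4× images. Relative viability is treated-well nuclei count divided by vehicle-well nuclei count, and values are medians of duplicate plates.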

Metformin + Foretinib = compound: CN(C)C(=N)NC(=N)N [Metformin] + COc1cc2c(Oc3ccc(NC(=O)C4(C(=O)Nc5ccc(F)cc5)CC4)cc3F)ccnc2cc1OCCCN1CCOCC1 [Foretinib] (partner 0.25 µM)
Summary of the method: as §2

Cell Line	relative viability (Apatinib; 0.08 µM)	relative viability (Apatinib; 0.253 µM)	relative viability (Apatinib; 0.8 µM)	relative viability (Apatinib; 2.53 µM)	relative viability (Apatinib; 8 µM)	relative viability (Metformin; 10 µM)	relative viability (Metformin; 31.62 µM)	relative viability (Metformin; 100 µM)	relative viability (Metformin; 316.23 µM)	relative viability (Metformin; 1000 µM)	relative viability (Metformin + Navitoclax; first compound 10 µM)	relative viability (Metformin + Navitoclax; first compound 31.62 µM)	relative viability (Metformin + Navitoclax; first compound 100 µM)	relative viability (Metformin + Navitoclax; first compound 316.23 µM)	relative viability (Metformin + Navitoclax; first compound 1000 µM)	relative viability (Metformin + Foretinib; first compound 10 µM)	relative viability (Metformin + Foretinib; first compound 31.62 µM)	relative viability (Metformin + Foretinib; first compound 100 µM)	relative viability (Metformin + Foretinib; first compound 316.23 µM)	relative viability (Metformin + Foretinib; first compound 1000 µM)
SK-LU-1	1.09	1.08	0.992	0.949	0.931	0.997	0.976	0.967	0.901	1.01	0.891	0.777	0.976	0.926	0.953	0.807	0.77	0.769	0.69	0.79
SW 1573	1.08	1.12	0.941	0.839	0.872	1.13	1.1	1.01	0.843	0.864	0.878	0.835	1.11	0.994	1.1	0.955	1.04	0.914	0.788	1.1
LK-2	0.978	0.976	0.973	0.856	0.634	1.22	1.28	1.22	1.07	1.32	0.86	1.15	1.2	0.933	1.2	1.72	1.93	1.79	1.28	–
NCI-H1993	1.01	0.923	0.889	0.833	0.869	1.03	0.892	1	0.872	1.07	1.04	1.04	1.28	0.968	1.25	0.964	1.02	0.912	0.836	1.06
NCI-H1437	0.949	0.995	0.996	0.83	0.799	1.09	1.16	1.01	1.04	1.08	1.08	1.08	1.12	0.979	1.08	1.3	1.31	1.32	1.29	1.21
H3255	0.979	0.935	0.964	0.859	0.916	0.839	1.09	0.967	0.909	0.841	0.503	0.623	0.571	0.531	0.355	0.863	0.96	0.91	0.747	0.877
NCI-H322M	0.964	0.861	0.894	0.975	1.07	0.974	0.922	0.939	0.951	0.855	1.19	1.28	1.02	1.14	1.19	1.14	1.03	1.05	1.1	0.935
CAL-12T	1.08	0.99	1	0.91	0.828	1.02	1.19	0.938	1.02	0.968	–	1.35	1.14	1.29	1.09	1.25	1.32	1.04	1.04	0.76
PC-14	1.03	1.05	0.829	0.968	0.956	1.01	1.09	0.997	0.971	0.944	0.968	0.958	0.998	1	0.989	0.795	1.08	0.879	0.932	1
NCI-H2009	1.06	0.979	0.968	0.762	0.618	0.889	1.1	1.04	1.02	1.03	1.19	1.16	1.21	1.17	1.07	1.21	1.31	1.31	1.13	1.04
NCI-H2347	1.03	0.964	1.03	0.858	0.933	0.918	1.05	0.969	0.944	1.1	0.633	0.694	0.802	0.746	0.716	0.844	0.578	0.784	0.885	0.459
NCI-H23	1.08	0.977	0.912	0.937	0.88	0.919	1.17	0.969	0.997	1.13	0.82	0.902	0.805	0.839	0.993	0.925	1.1	1.01	0.953	1.08
